“Also recorded” adds a separate entry of the source.
How the values were obtained:
[1] = tested on: fibromyalgia; conditions: cited from earlier work
[2] = tested on: patients with fibromyalgia and insulin resistance; experiment: Retrospective review of Numeric Pain Rating Scale (NPRS) pain scores before and after treatment; assay type: in vivo, human
Description: Data was obtained from the review of various patient populations as followed: First, the pain scores of two populations of patients were reviewed. Group 1 consisted of 16 patients with fibromyalgia and insulin resistance (HbA1c values of 5.7 or higher) who were prescribed metformin 500 mg twice a day for insulin resistance. In this group, metformin had been added to the “standard treatment” for fibromyalgia. The “standard treatment” (ST) consisted of norepinephrine reuptake inhibitors (amitriptyline, duloxetine or milnacipran) and/or membrane-stabilizing agents (gabapentin or pregabalin). […]
Second, the pain scores of another group of patients with insulin resistance and fibromyalgia, Group 2, who had been treated with […], a class of drugs that reduce insulin resistance by a mechanism different from metformin were analyzed. […]
Because peripheral neuropathies (including small fiber neuropathy) that are associated with insulin resistance may start at very early stages of pre-diabetes, there is a growing trend among experts to begin early pharmacological interventions to correct this abnormality, particularly when insulin resistance is associated with neuropathy or other risk factors. […] Pain scores were routinely recorded by the Numeric Pain Rating Scale (NPRS), at each clinical encounter. […]

[3] = in vivo; cited from earlier work

Row | SMILES | NNT (numbers needed to treat) [1] | change in pain scores (NPRS), in words ([2]; Group 2, 10 patients: 5 metformin alone, 5 PPD-4 inhibitor alone, no ST) | retention of the analgesic effect ([2]; long-term, refers to a Table 3 that is not given) | individuals intolerant to metformin [3]
1 | CN(C)CCC=C1c2ccccc2CCc2ccccc21 [amitriptyline] | 4 | – | – | –
2 | CNCC[C@H](Oc1cccc2ccccc12)c1cccs1 [duloxetine] | 6 | – | – | –
3 | CN(C)C(=N)N=C(N)N [metformin] | – | comparable reductions in pain scores; also recorded: this improvement was only partial | long-term retention of the analgesic effect | at least 20%

Source: patent US20200237875A1, “FORMULATIONS AND METHODS FOR TREATMENT OF FIBROMYALGIA AND RELATED MYOFASCIAL PAIN DISORDERS” (SYNLEV PHARMACEUTICALS CORPORATION, priority 2019, published 2020)
